The conditions of series [1]: 101.33 kPa, Liquid; for viscosity: Capillary tube (Ostwald / Ubbelohde) method; for mass density: Vibrating tube method.
A short description of series [2]: xn = mol fraction of the nth substance listed. The conditions noted are these: 101 kPa, Liquid, x1 = 1; for viscosity: Capillary tube (Ostwald / Ubbelohde) method; for mass density: Vibrating tube method.

Numbers after ± are expanded uncertainties.

What is called viscosity is the internal friction of a fluid under shear. Broadly, the mass density is mass per unit of volume. For the compound `CCCCn1cc[n+](C)c1.F[B-](F)(F)F` [1-butyl-3-methylimidazolium tetrafluoroborate], the viscosity in series [1] (293.15 K) was 139.12 ± 8.7 mPa·s; in series [1] (303.15 K), 82.49 ± 5 mPa·s; in series [1] (313.15 K), 52.33 ± 3.1 mPa·s; in series [1] (323.15 K) it was 35.16 ± 2.1 mPa·s; in series [1] (333.15 K), 24.69 ± 1.5 mPa·s. Moreover, the mass density in series [1] (293.15 K) was determined as 1205.1 ± 1.2 kg/m3; in series [1] (303.15 K), 1198 ± 1.2 kg/m3; in series [1] (313.15 K), 1190.8 ± 1.2 kg/m3; in series [1] (323.15 K) it was 1183.7 ± 1.2 kg/m3; in series [1] (333.15 K), 1176.8 ± 1.2 kg/m3.

Turning to `CCCCn1cc[n+](C)c1.F[B-](F)(F)F` [1-butyl-3-methylimidazolium tetrafluoroborate] + NCCO, the viscosity turned out to be 139.12 ± 8.7 mPa·s in series [2] (293.15 K); 82.49 ± 5 mPa·s in series [2] (303.15 K); 52.33 ± 3.1 mPa·s in series [2] (313.15 K); 35.16 ± 2.1 mPa·s in series [2] (323.15 K); 24.69 ± 1.5 mPa·s in series [2] (333.15 K). Also, the mass density was 1205.1 ± 1.2 kg/m3 in series [2] (293.15 K); 1198 ± 1.2 kg/m3 in series [2] (303.15 K); 1190.8 ± 1.2 kg/m3 in series [2] (313.15 K); 1183.7 ± 1.2 kg/m3 in series [2] (323.15 K); 1176.8 ± 1.2 kg/m3 in series [2] (333.15 K).

Take `NCCO` [2-aminoethan-1-ol]: the viscosity in series [1] (293.15 K) worked out at 23.65 ± 1.4 mPa·s; in series [1] (303.15 K), 14.75 ± 0.89 mPa·s; in series [1] (313.15 K), 9.78 ± 0.59 mPa·s; in series [1] (323.15 K) it was 6.81 ± 0.41 mPa·s; in series [1] (333.15 K) it was 4.99 ± 0.3 mPa·s. The mass density turned out to be 1015.5 ± 1 kg/m3 in series [1] (293.15 K); 1007.6 ± 1 kg/m3 in series [1] (303.15 K); 999.7 ± 1 kg/m3 in series [1] (313.15 K); 991.7 ± 1 kg/m3 in series [1] (323.15 K); 983.6 ± 1 kg/m3 in series [1] (333.15 K).

Values taken from the NIST ThermoML archive (doi:10.1016/j.jct.2016.07.041).
